Where a SMILES comes first, the peptide text is derived from it. The star is where a group is joined. Cbz = O=C(OCc1ccccc1)*; CH2F = FC*
What was measured:
[1] = tested on: mouse epithelial keratinocytes; assay: Mouse epithelial keratinocyte culture (qRT-PCR, immunoblot); conditions: for IL-36α protein (whole-cell lysates): mouse epithelial keratinocytes
BMDMs = assay: BMDM cultures with live S. aureus ± caspase inhibitors; conditions: live S. aureus 6 hours, Q-VD-OPH 10 μg/mL, Emricasan 9 μg/mL
mouse neutrophils = assay: Neutrophil cultures with live S. aureus ± caspase inhibitors; conditions: live S. aureus 6 hours, Q-VD-OPH 10 μg/mL, Emricasan 9 μg/mL
human keratinocytes = assay: Human keratinocyte culture (qRT-PCR, immunostaining)
Procedure: Human and Mouse Keratinocyte Isolation and Culture.
Quantitative real-time PCR (qRT-PCR).
Immunofluorescence, immunocytochemistry, and immunohistochemistry. […] After washing and permeabilization in TBS-T universal buffer (0.2% Triton X-100 in tris-buffered saline), sections were blocked at room-temperature in 5% goat, donkey or fetal bovine serum with 1% bovine serum albumin. […] Following subsequent washing, sections were incubated in fluorescent-dye conjugated secondary antibodies diluted in antibody diluent for 1 hour at room temperature. After final washing, sections were mounted with […] ® Hardset™ Antifade Mounting Medium with DAPI (Vector Laboratories, H-1500) for nuclear staining. Human keratinocytes were prepared similarly, with the exception of antigen retrieval. All slides were imaged using either the DFC365FX (Leica) or Eclipse E-800 (Nikon) at 10×, 20×, and 40× magnifications.

neogenic hair follicles = assay: Wound Induced Hair Neogenesis (WIHN) assay; format: in vivo, mice
Procedure: Wound Induced Hair Neogenesis (WIHN) Assay. All in vivo experimental surgical procedures were performed as previously characterized ^1,2,6-8. In short, after exposure to vaporizing anesthesia (Baxter, Isoflurane) the dorsal side of male and female 3-week-old (21 days) mice were shaved at approximately 8-10 g of weight. Using surgical scissors, approximately 1.26 cm^2×1.25 cm^2 of skin was excised creating wounds deep into the fascia. At 3 days post-wounding, a single dose (50 μl) of 100 μg/mL high molecular weight (HMW) polyinosinic-polycytidylic acid (Poly (I:C)) (Invivogen, tlrl-pic) was administered underneath the scab site via injection in both wild-type and transgenic mice as previously described^2,8. For functional experiments characterizing IL-36 on WIHN, a single dose (50 μl) of 1 μg/mL recombinant mouse IL-36α protein (R&D Systems, 7059-ML/CF) was injected underneath the scab site at 7 days post-wounding. For rescue experiments using the small molecule, broad spectrum pan-caspase inhibitor, 20 ul of 5 mg/mL Q-VD-OPh (in DMSO) was diluted 130 μL of phosphate-buffered saline (PBS) (1.33 mM final concentration) and injected intraperitoneally in mice 24 hours prior to wounding and approximately 10 days after wounding (scab detachment).
Immunofluorescence, immunocytochemistry, and immunohistochemistry.

[2] = no significant differences vs no treatment
[3] = RNase L siRNA transfected human keratinocytes, 10 μg/ml

C[C@H](NC(=O)C(=O)Nc1ccccc1C(C)(C)C)C(=O)N[C@@H](CC(=O)O)C(=O)COc1c(F)c(F)cc(F)c1F [Emricasan]
IL-36α protein (whole-cell lysates) [1]: increased
percentages of TNF+ BMDMs (BMDMs): 33.53%
viable cells (Zombie UV negative cells) (BMDMs; [2]): ~80%
percentages of TNF+ neutrophils (mouse neutrophils): 25.47%
viable cells (Zombie UV negative cells) (mouse neutrophils; [2]): ~50%

CC(C)(O)c1coc(S(=O)(=O)NC(=O)Nc2c3c(cc4c2CCC4)CCC3)c1 [MCC950]
regeneration (morphogenesis) markers (human keratinocytes; MCC950 100 μM, further increased by exogenous dsRNA addition): greater regeneration markers than controls

COC(=O)CC[C@H](NC(=O)[C@H](Cc1c[nH]c2ccccc12)NC(=O)OCc1ccccc1)C(=O)N[C@@H](Cc1cnc[nH]1)C(=O)N[C@@H](CC(=O)OC)C(=O)CF [Z-WEHD-FMK] (Cbz-WE(OMe)HD(OMe)-CH2F)
IL-36 receptor (IL36r) expression ([1]; 48 hrs treatment): not affected
IL-36 receptor antagonist (IL-36m) protein or mRNA levels ([1]; 48 hrs treatment): not affected
Tlr3 expression ([1]; 48 hrs treatment): elevated
caspase gene mRNA (inflammatory caspases 1 and 4) ([1]; 48 hrs treatment): elevated
IL-36α protein (whole-cell lysates) [1]: increased

polyinosinic-polycytidylic acid [poly (I:C)]
Il36α and Casp1 levels ([1]; after siRNA-mediated RNase L loss, poly (I:C) 10 μg/ml, 48 hrs): boosted
differentiation markers (human keratinocytes; [3]): inhibits differentiation markers
morphogenesis markers (human keratinocytes; [3]): induces multiple morphogenesis markers
WIHN (hair follicle regeneration) (neogenic hair follicles; Il36r^−/− mice): not responsive
WIHN (neogenic hair follicles; Rnasel^−/− mice, poly (I:C) under the scab 3 days post-wounding): intact super-increase

B1: rmIL-36a: recombinant mouse IL-36α protein (R&D Systems, 7059-ML/CF) (protein, UniProt Q9JLA2 8-160, looked up)
Interleukin-36 alpha: RAASPSLRHVQDLSSRVWILQNNILTAVPRKEQTVPVTITLLPCQYLDTLETNRGDPTYMGVQRPMSCLFCTKDGEQPVLQLGEGNIMEMYNKKEPVKASLFYHKKSGTTSTFESAAFPGWFIAVCSKGSCPLILTQELGEIFITDFEMIVVH
increase in the number of neogenic hair follicles (neogenic hair follicles; 50 μl of 1 μg/mL injected underneath the scab at 7 days post-wounding, vs vehicle-treated controls): > 2 fold

B2: recombinant IL-36α: recombinant IL-36α used to treat human keratinocytes (protein, UniProt Q9UHA7 6-158, looked up)
Interleukin-36 alpha: KIDTPQQGSIQDINHRVWVLQDQTLIAVPRKDRMSPVTIALISCRHVETLEKDRGNPIYLGLNGLNLCLMCAKVGDQPTLQLKEKDIMDLYNQPEPVKSFLFYHSQSGRNSTFESVAFPGWFIAVSSEGGCPLILTQELGKANTTDFGLTMLF
WNT7B mRNA expression (human keratinocytes; qRT-PCR): promotes WNT7B expression
